The values that follow come from ChEMBL document CHEMBL3217731 (Medchemcomm, 2012).

Common to all, as to design: dose 2.5 mg/kg, route intraperitoneal
Data set [1] has as its system Serum. Kind of data set: Drug uptake in C57BL/6J mouse serum at 2.5 mg/kg, ip measured at 10 to 60 mins by CE-UV analysis. It is filed as ADME, organism-based. The settings on record: in vivo.
Data set [2] can be described thus: Drug uptake in C57BL/6J mouse CSF at 2.5 mg/kg, ip measured at 4 to 10 hrs by CE-UV analysis. In kind it is ADME, organism-based, Cerebrospinal fluid. The settings on record: in vivo.
For a further data set, the system named is Brain. Nature of the data set: Drug uptake in C57BL/6J mouse brain at 2.5 mg/kg, ip measured at 4 hrs by CE-UV analysis. It is filed as ADME, organism-based. To be noted: in vivo.
Data set [3] can be described thus: AUC in C57BL/6J mouse CSF at 2.5 mg/kg, ip by CE-UV analysis. It is filed as ADME, organism-based.
Data set [4] can be described thus: Drug uptake in C57BL/6J mouse eye at 2.5 mg/kg, ip measured at 10 hrs by CE-UV analysis. In kind it is ADME, organism-based. To be noted: in vivo.
The test system of data set [5] is Serum. Kind of data set: AUC in C57BL/6J mouse serum at 2.5 mg/kg, ip by CE-UV analysis. In kind it is ADME, organism-based, Plasma. To be noted: in vivo.
Data set [6] relates to Serum. Kind of data set: Half life in C57BL/6J mouse serum at 2.5 mg/kg, ip. The settings on record: in vivo. In kind it is ADME, organism-based.

SMILES strings stand for the structures.

As to `CN1C(=O)N[C@H]2[C@@H]3NC(=O)c4ccc(Br)n4[C@@H]3C[C@]21O` [AGELASTATIN A], the Drug uptake result (in the data set with Serum [1]; in data set [2]; in the data set on Brain; in data set [4]) was “Active” each time. Further, the AUC – broadly, the area under the concentration-time curve, a measure of exposure – in data set [3] worked out at 3.41 µM·h; with Serum [5], 33.8 µM·h. Also, the t1/2 in the data set on Serum [6] stood at 12 h.
